pIC50: −log10 of the molar value. *1 amine or outer side, *2 acyl side, *3 side chain or, on linkers, in order; H or OH if unused. Where a SMILES comes first, the peptide text is derived from it. Bridges are numbered along the chain shown (N, C = ends). [ ]: non-standard residue; d: D form. ξ: configuration not given here. Trp(1-CH2COOH) = N[C@@H](Cc1cn(CC(=O)O)c2ccccc12)C(=O)O; Lac(3-(indol-3-yl)) = O=C(O)[C@@H](O)Cc1c[nH]c2ccccc12; Phe(3,4,5-F3) = N[C@@H](Cc1cc(F)c(F)c(F)c1)C(=O)O; Phe(3,4-F2) = N[C@@H](Cc1ccc(F)c(F)c1)C(=O)O; NMeW = CN[C@@H](Cc1c[nH]c2ccccc12)C(=O)O; Phe(4-F) = N[C@@H](Cc1ccc(F)cc1)C(=O)O; d(cisHyp) = O=C(O)[C@H]1C[C@@H](O)CN1; Bta = N[C@@H](Cc1csc2ccccc12)C(=O)O; NMeIle(3ξ) = CCC(C)[C@H](NC)C(=O)O; Hyp = O=C(O)[C@@H]1C[C@@H](O)CN1; NMeF = CN[C@@H](Cc1ccccc1)C(=O)O; X1 = O=C([C@H]1COCCN1[*:1])[*:2]; NMeNle = CCCC[C@H](NC)C(=O)O; Tle = CC(C)(C)[C@H](N)C(=O)O; dNle = CCCC[C@@H](N)C(=O)O; dPip = O=C(O)[C@H]1CCCCN1; hSer = N[C@@H](CCO)C(=O)O; NMeA = CN[C@@H](C)C(=O)O; Orn = NCCC[C@H](N)C(=O)O; Dab = NCC[C@H](N)C(=O)O; Dap = NC[C@H](N)C(=O)O; ξP = O=C(O)C1CCCN1; ξC = NC(CS)C(=O)O; Sar = CNCC(=O)O
Target: T1, Human PD-L1/PD-1 (Homo sapiens, UniProt Q9NZQ7)
T1 construct: TVMV protease cleavage site (C); made in house; host or cells: HEK293T cells
Experiment: HTRF Human PD-L1/PD-1 binding assay (PD-1-Ig/PD-L1-His)
Settings: PD-L1-His 10 nM, PD-1-Ig 20 nM; class symbol; read-out: HTRF Human PD-L1/PD-1 Binding Assay IC50 Range
How it was run: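 Step 1: compound with PD-L1-His (10 nM final), 15 min. Step 2: PD-1-Ig (20 nM final), 15 min. Step 3: Eu-cryptate anti-Ig (1 nM) plus APC anti-His (20 nM), 30 min equilibration. Signal taken as 665 nm/620 nm ratio.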

T1 sequence (Q9NZQ7 with tags, fused parts or gaps): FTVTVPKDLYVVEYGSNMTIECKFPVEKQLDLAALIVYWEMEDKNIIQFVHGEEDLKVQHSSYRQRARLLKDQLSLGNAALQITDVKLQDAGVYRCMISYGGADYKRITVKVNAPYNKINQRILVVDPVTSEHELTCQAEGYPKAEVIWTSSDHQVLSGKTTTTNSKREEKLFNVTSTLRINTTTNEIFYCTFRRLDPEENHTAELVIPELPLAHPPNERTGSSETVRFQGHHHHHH

| SMILES | pIC50 |
| --- | --- |
| CCCC[C@H]1C(=O)N2C[C@H](O)C[C@@H]2C(=O)N[C@@H](CC(=O)O)C(=O)N[C@@H](C(C)C)C(=O)N(C)[C@@H](Cc2ccccc2)C(=O)N[C@@H](CCCN)C(=O)N2CCOC[C@@H]2C(=O)N[C@@H](Cc2c[nH]c3ccccc23)C(=O)N[C@@H](Cc2ccc(O)cc2)C(=O)N[C@@H](CCOC)C(=O)N[C@H](C(=O)NCC(N)=O)CSCC(=O)N[C@@H](Cc2cc(F)c(F)c(F)c2)C(=O)N(C)[C@@H](Cc2ccccc2)C(=O)N1C [Example 10162] ({CH2CO}-[Phe(3,4,5-F3)][NMeF][NMeNle][d(cisHyp)]DV[NMeF][Orn][X1]WY[hSer](Me)CG-NH2; thioether N-13) | 8.00 to 9.00 |
| CCCC[C@H]1C(=O)N(C)[C@@H](CCCC)C(=O)N[C@@H](CCC(=O)O)C(=O)N[C@H](C(=O)NCC(N)=O)CSCC(=O)N[C@@H](Cc2ccc(O)cc2)C(=O)N(C)[C@@H](C)C(=O)N[C@@H](CC(=O)O)C(=O)N2CCC[C@H]2C(=O)N[C@@H](CO)C(=O)N[C@@H](CCC(N)=O)C(=O)N2C[C@H](O)C[C@H]2C(=O)N[C@@H](Cc2c[nH]c3ccccc23)C(=O)N[C@@H](CCC(=O)O)C(=O)N[C@@H](Cc2c[nH]c3ccccc23)C(=O)N1C [Example 5177] ({CH2CO}-Y[NMeA]DPSQ[Hyp]WEW[NMeNle][NMeNle]ECG-NH2; thioether N-14) | 7.00 to 8.00 |
| CCCC[C@H]1C(=O)N2CCC[C@@H]2C(=O)N[C@@H](CC(=O)O)C(=O)N[C@@H](C(C)(C)C)C(=O)N(C)[C@@H](Cc2ccccc2)C(=O)N[C@@H](Cc2ccc(O)cc2)C(=O)N2CCOC[C@@H]2C(=O)N[C@@H](Cc2c[nH]c3ccccc23)C(=O)N[C@@H](Cc2ccc(O)cc2)C(=O)N[C@@H](CC(C)C)C(=O)N[C@H](C(=O)NCC(N)=O)CSCC(=O)N[C@@H](Cc2cc(F)c(F)c(F)c2)C(=O)N(C)[C@@H](Cc2ccccc2)C(=O)N1C [Example 3223] ({CH2CO}-[Phe(3,4,5-F3)][NMeF][NMeNle][dP]D[Tle][NMeF]Y[X1]WYLCG-NH2; thioether N-13) | 8.00 to 9.00 |
| CCCC[C@H]1C(=O)N(C)[C@@H](CCCC)C(=O)N[C@@H](CCC(=O)O)C(=O)N[C@H](C(=O)NCC(N)=O)CSCC(=O)N[C@@H](Cc2ccc(O)cc2)C(=O)N(C)[C@@H](C)C(=O)N[C@@H](CC(N)=O)C(=O)N2CCCC2C(=O)N[C@@H](CN)C(=O)N[C@@H](CC(C)C)C(=O)N2C[C@H](O)C[C@H]2C(=O)N[C@@H](Cc2c[nH]c3ccccc23)C(=O)N[C@@H](CCN)C(=O)N[C@@H](Cc2cn(CC(=O)O)c3ccccc23)C(=O)N1C (stereo partly drawn) [Example 6344] ({CH2CO}-Y[NMeA]N[ξP][Dap]L[Hyp]W[Dab][Trp(1-CH2COOH)][NMeNle][NMeNle]ECG-NH2; thioether N-14) | 8.00 to 9.00 |
| CCCC[C@H]1C(=O)N2C[C@H](O)C[C@@H]2C(=O)N[C@@H](CC(=O)O)C(=O)N[C@@H](C(C)C)C(=O)N(C)[C@@H](Cc2ccccc2)C(=O)N[C@@H](CCCCN)C(=O)N2C[C@H](O)C[C@@H]2C(=O)N[C@@H](Cc2c[nH]c3ccccc23)C(=O)N[C@@H](Cc2ccc(O)cc2)C(=O)N[C@@H](CC(C)C)C(=O)N[C@H](C(=O)NCC(N)=O)CSCC(=O)N[C@@H](Cc2ccc(F)c(F)c2)C(=O)N(C)[C@@H](Cc2ccccc2)C(=O)N1C [Example 9294] ({CH2CO}-[Phe(3,4-F2)][NMeF][NMeNle][d(cisHyp)]DV[NMeF]K[d(cisHyp)]WYLCG-NH2; thioether N-13) | 8.00 to 9.00 |
| CCCC[C@H]1C(=O)N2CCC[C@@H]2C(=O)N[C@@H](CC(=O)O)C(=O)N[C@@H](C(C)C)C(=O)N(C)[C@@H](C(C)CC)C(=O)N[C@@H](Cc2ccc(O)cc2)C(=O)N2CCCC[C@@H]2C(=O)N[C@@H](Cc2c[nH]c3ccccc23)C(=O)N[C@@H](Cc2ccc(O)cc2)C(=O)N[C@@H](CCCN)C(=O)N[C@H](C(=O)NCC(N)=O)CSCC(=O)N[C@@H](Cc2ccc(F)cc2)C(=O)N(C)[C@@H](Cc2ccccc2)C(=O)N1C (stereo partly drawn) [Example 9259] ({CH2CO}-[Phe(4-F)][NMeF][NMeNle][dP]DV[NMeIle(3ξ)]Y[dPip]WY[Orn]CG-NH2; thioether N-13) | 5.00 to 6.00 |
| CCCC[C@H]1C(=O)N(C)[C@@H](CCCC)C(=O)N[C@@H](C)C(=O)N[C@H](C(=O)NCC(N)=O)CSCC(=O)N[C@@H](Cc2ccc(O)cc2)C(=O)N2CCNC[C@H]2C(=O)N[C@@H](CC(N)=O)C(=O)N2CCC[C@H]2C(=O)N[C@@H](Cc2cnc[nH]2)C(=O)N[C@@H](CCC(N)=O)C(=O)N2C[C@H](O)C[C@H]2C(=O)N[C@@H](Cc2c[nH]c3ccccc23)C(=O)N[C@@H](CO)C(=O)N[C@@H](Cc2c[nH]c3ccccc23)C(=O)N1C [Example 1275] | 8.00 to 9.00 |
| CCCC[C@H]1NC(=O)[C@H](Cc2csc3ccccc23)NC(=O)[C@H](CO)NC(=O)[C@H](Cc2c[nH]c3ccccc23)OC(=O)[C@@H]2CCCN2C(=O)[C@H](CC(C)C)NC(=O)[C@H](Cc2cnc[nH]2)NC(=O)[C@@H]2CCCN2C(=O)[C@H](CC(N)=O)NC(=O)[C@H](C)N(C)C(=O)[C@H](Cc2ccc(O)cc2)NC(=O)CSCC(C(=O)NCC(N)=O)NC(=O)[C@H](CCCNC(=N)N)NC(=O)[C@H](CCCC)N(C)C1=O (stereo partly drawn) [Example 10122] ({CH2CO}-Y[NMeA]NPHLP[Lac(3-(indol-3-yl))]S[Bta][dNle][NMeNle]R[ξC]G-NH2; thioether N-14) | 5.00 to 6.00 |
| CCCC[C@H]1NC(=O)[C@H](Cc2c[nH]c3ccccc23)NC(=O)[C@H](CO)NC(=O)[C@H](Cc2c[nH]c3ccccc23)NC(=O)[C@@H]2C[C@@H](O)CN2C(=O)[C@H](CCCN)NC(=O)[C@H](Cc2cnc[nH]2)NC(=O)[C@@H]2CCCN2C(=O)[C@H](CC(=O)O)NC(=O)[C@H](C)N(C)C(=O)[C@H](Cc2ccc(O)cc2)NC(=O)CSCC(C(=O)NCC(N)=O)NC(=O)[C@H](CCC(=O)O)NC(=O)[C@H](CCCC)N(C)C1=O (stereo partly drawn) [Example 10130] ({CH2CO}-Y[NMeA]DPH[Orn][Hyp]WSW[dNle][NMeNle]E[ξC]G-NH2; thioether N-14) | 5.00 to 6.00 |
| CCCC[C@H]1C(=O)N2CCC[C@@H]2C(=O)N[C@@H](CC(=O)O)C(=O)N[C@@H](C(C)C)C(=O)N(C)[C@@H](Cc2ccccc2)C(=O)N[C@@H](CC(=O)O)C(=O)N2CCC[C@@H]2C(=O)N[C@@H](Cc2c[nH]c3ccccc23)C(=O)N[C@@H](Cc2ccc(O)cc2)C(=O)N[C@@H](CCO)C(=O)N[C@H](C(=O)NCC(N)=O)CSCC(=O)N[C@@H](Cc2cc(F)c(F)c(F)c2)C(=O)N(C)[C@@H](Cc2ccccc2)C(=O)N1C [Example 10170] ({CH2CO}-[Phe(3,4,5-F3)][NMeF][NMeNle][dP]DV[NMeF]D[dP]WY[hSer]CG-NH2; thioether N-13) | 8.00 to 9.00 |
| CCCC[C@H]1C(=O)N(C)[C@@H](CCCC)C(=O)N[C@@H](CCCNC(=N)N)C(=O)N[C@H](C(=O)NCC(N)=O)CSCC(=O)N[C@@H](Cc2ccc(O)cc2)C(=O)N(C)[C@@H](C)C(=O)N[C@@H](CC(=O)O)C(=O)N2CCC[C@H]2C(=O)N[C@@H](Cc2c[nH]cn2)C(=O)N[C@@H](CC(C)C)C(=O)N2C[C@H](O)C[C@H]2C(=O)N[C@@H](Cc2c[nH]c3ccccc23)C(=O)N[C@@H](CCCCN)C(=O)N[C@@H](Cc2c[nH]c3ccccc23)C(=O)N1C [Example 11003] ({CH2CO}-Y[NMeA]DPHL[Hyp]WKW[NMeNle][NMeNle]RCG-NH2; thioether N-14) | 8.00 to 9.00 |
| CCCC[C@H]1C(=O)N2CCC[C@@H]2C(=O)N[C@@H](CC(=O)O)C(=O)N[C@@H](C(C)C)C(=O)N(C)[C@@H](Cc2ccccc2)C(=O)N[C@@H](CC(=O)O)C(=O)N2CCC[C@@H]2C(=O)N[C@@H](Cc2c[nH]c3ccccc23)C(=O)N[C@@H](Cc2ccc(O)cc2)C(=O)N[C@@H](CC(C)C)C(=O)N[C@H](C(=O)NCC(N)=O)CSCC(=O)N[C@@H](Cc2ccc(F)cc2)C(=O)N(C)[C@@H](Cc2ccccc2)C(=O)N1C [Example 10106] ({CH2CO}-[Phe(4-F)][NMeF][NMeNle][dP]DV[NMeF]D[dP]WYLCG-NH2; thioether N-13) | 8.00 to 9.00 |
| CCCC[C@H]1C(=O)N(C)[C@@H](CCCC)C(=O)N[C@@H](CCCNC(=N)N)C(=O)NC(C(=O)NCC(N)=O)CSCC(=O)N[C@@H](Cc2ccc(O)cc2)C(=O)N(C)[C@@H](C)C(=O)N[C@@H](CC(N)=O)C(=O)N2CCC[C@H]2C(=O)N[C@@H](CO)C(=O)N[C@@H](CCO)C(=O)N2C[C@H](O)C[C@H]2C(=O)N[C@@H](Cc2c[nH]c3ccccc23)C(=O)N[C@@H](CCO)C(=O)N[C@@H](Cc2csc3ccccc23)C(=O)N1C (stereo partly drawn) [Example 10050] ({CH2CO}-Y[NMeA]NPS[hSer][Hyp]W[hSer][Bta][NMeNle][NMeNle]R[ξC]G-NH2; thioether N-14) | 8.00 to 9.00 |
| CCCC[C@H]1C(=O)N[C@@H](CN)C(=O)N[C@H](C(=O)NCC(N)=O)CSCC(=O)N[C@@H](Cc2ccc(O)cc2)C(=O)N(C)[C@@H](C)C(=O)N[C@@H](CC(=O)O)C(=O)N2CCC[C@H]2C(=O)N[C@@H](Cc2c[nH]cn2)C(=O)N[C@@H](CCC(=O)O)C(=O)N2C[C@H](O)C[C@H]2C(=O)N[C@@H](Cc2c[nH]c3ccccc23)C(=O)N[C@@H](CCN)C(=O)N[C@@H](Cc2c[nH]c3ccccc23)C(=O)N(C)[C@@H](Cc2c[nH]c3ccccc23)C(=O)N1C [Example 5229] ({CH2CO}-Y[NMeA]DPHE[Hyp]W[Dab]W[NMeW][NMeNle][Dap]CG-NH2; thioether N-14) | 8.00 to 9.00 |
| CCCC[C@H]1C(=O)N2CCCC[C@@H]2C(=O)N[C@@H](CC(=O)O)C(=O)N[C@@H](C)C(=O)N(C)[C@@H](Cc2ccccc2)C(=O)N[C@@H](Cc2ccc(O)cc2)C(=O)N(C)CC(=O)N[C@@H](Cc2c[nH]c3ccccc23)C(=O)N[C@@H](Cc2ccc(O)cc2)C(=O)N[C@@H](CC(C)C)C(=O)N[C@H](C(=O)NCC(N)=O)CSCC(=O)N[C@@H](Cc2ccccc2)C(=O)N(C)[C@@H](Cc2ccccc2)C(=O)N1C [Example 10084] ({CH2CO}-F[NMeF][NMeNle][dPip]DA[NMeF]Y[Sar]WYLCG-NH2; thioether N-13) | 6.00 to 7.00 |

Reference: patent publication US10538555B2, “Macrocyclic inhibitors of the PD-1/PD-L1 and CD80(B7-1)/PD-L1 protein/protein interactions” (BRISTOL-MYERS SQUIBB COMPANY, priority 2014, dated 2020)
